US10757937B2, “Sulfonamides that activate ABA receptors” (The Regents of the University of California, priority 2014, dated 2020)
Read-outs that look alike come from different tables or passages of the source.

Experiments:
PYL10 = biological target: T1, PYL10 (Arabidopsis thaliana, UniProt Q8H1R0); test: receptor-mediated PP2C (HAB1) inhibition in vitro assay; assay type: biochemical; conditions: for remaining activity at 50 µM: 50 uM of the test compound
T1 construct: 6X-His; made in house; host or cells: E. coli BL21[DE3]pLysS
T1 sequence (Q8H1R0 1-183): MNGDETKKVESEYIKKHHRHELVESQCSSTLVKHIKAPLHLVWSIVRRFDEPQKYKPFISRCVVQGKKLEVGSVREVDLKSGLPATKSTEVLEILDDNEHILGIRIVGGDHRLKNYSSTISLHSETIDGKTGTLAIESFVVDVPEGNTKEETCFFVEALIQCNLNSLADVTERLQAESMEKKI
T1 sequence (Q9CAJ0 23-511 partner): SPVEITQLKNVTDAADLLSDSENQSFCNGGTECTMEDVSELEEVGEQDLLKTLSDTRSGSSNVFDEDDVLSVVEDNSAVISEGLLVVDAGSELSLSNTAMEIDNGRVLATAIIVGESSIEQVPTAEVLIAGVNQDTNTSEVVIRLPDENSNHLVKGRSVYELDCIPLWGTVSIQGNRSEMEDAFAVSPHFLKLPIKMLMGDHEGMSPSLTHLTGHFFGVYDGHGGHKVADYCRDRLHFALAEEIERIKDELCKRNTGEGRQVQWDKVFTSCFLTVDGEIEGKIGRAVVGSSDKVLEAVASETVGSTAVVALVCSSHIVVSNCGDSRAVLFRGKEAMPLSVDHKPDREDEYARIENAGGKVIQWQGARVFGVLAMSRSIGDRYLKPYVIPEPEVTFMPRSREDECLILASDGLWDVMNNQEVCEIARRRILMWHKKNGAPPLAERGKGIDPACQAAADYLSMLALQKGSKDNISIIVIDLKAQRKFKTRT
Procedure, shortened: (§1)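 Compounds, tested at 25 μM or 50 uM with ABA at 10 uM, were incubated with recombinant receptor and 50 nM GST-HAB1 (2:1 ratio) in MnCl2-containing Tris-OAc buffer, pH 7.9. Phosphatase activity was followed by 4-methylumbelliferyl-phosphate fluorescence.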

PYL11 = biological target: T2, PYL11 (Arabidopsis thaliana, UniProt Q9FJ50); test: as above; assay type: biochemical; conditions: for remaining activity at 50 µM: 50 uM of the test compound
T2 construct: made in house; host or cells: E. coli BL21[DE3]pLysS
T2 sequence (Q9FJ50 1-161): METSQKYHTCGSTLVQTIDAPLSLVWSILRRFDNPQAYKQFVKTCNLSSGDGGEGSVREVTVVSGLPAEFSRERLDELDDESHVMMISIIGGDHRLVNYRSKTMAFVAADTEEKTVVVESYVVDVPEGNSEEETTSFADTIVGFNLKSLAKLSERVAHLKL
T2 sequence (Q9CAJ0 23-511 partner): T1 sequence (Q9CAJ0 23-511 partner)
Procedure, shortened: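 His-tagged receptors (MBP fusion for PYL11) at 2:1 ratio to 50 nM GST-HAB1 in 100 mM Tris-OAc pH 7.9, 100 mM NaCl, 1 mM MnCl2; 4-methylumbelliferyl-phosphate fluorogenic substrate. Compounds at 50 uM (ABA 10 uM); IC50 from dose curves for selected compounds.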

PYL6 = biological target: T3, PYL6 (Arabidopsis thaliana, UniProt Q8S8E3); test: as above; assay type: biochemical; conditions: for remaining activity at 50 µM: 50 uM of the test compound
T3 construct: 6X-His; made in house; host or cells: E. coli BL21[DE3]pLysS
T3 sequence (Q8S8E3 1-215): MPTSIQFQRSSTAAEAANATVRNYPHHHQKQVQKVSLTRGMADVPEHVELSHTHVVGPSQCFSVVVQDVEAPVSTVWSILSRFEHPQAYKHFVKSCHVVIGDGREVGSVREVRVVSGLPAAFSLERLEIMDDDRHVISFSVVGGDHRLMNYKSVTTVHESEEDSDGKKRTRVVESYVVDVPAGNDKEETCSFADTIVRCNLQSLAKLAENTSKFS
T3 sequence (Q9CAJ0 23-511 partner): T1 sequence (Q9CAJ0 23-511 partner)
Procedure, shortened: as §1

[1] = system: Arabidopsis seed germination and hypocotyl growth; test: Arabidopsis seed germination and hypocotyl growth; assay type: in vivo; conditions: for minimal effective concentration: Arabidopsis thaliana
Procedure, shortened: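 Wild-type seeds germinated on ½× Murashige and Skoog medium with compound at 10 and 50 uM, or in a later series at 1, 5, 10, 25 and 50 uM. Reported value is the lowest tested concentration that inhibited germination or hypocotyl growth in wells where seeds germinated.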

[2] = Table XII-B, calculated from dose curves, read-out: PP2C Activity (IC50 in uM) PYL10
[3] = Table XII-B, calculated from dose curves, read-out: PP2C Activity (IC50 in uM) PYL6
[4] = Germination Effects III, tested at 1, 5, 10, 25 and 50 uM, lowest concentration inhibiting hypocotyl growth, — = none, read-out: Growth Inhibition
[5] = Table XII-B, calculated from dose curves, read-out: PP2C Activity (IC50 in uM) PYL11
[6] = Germination Effects III, tested at 1, 5, 10, 25 and 50 uM, lowest inhibiting concentration, — = none, read-out: Germination Inhibition

SMILES	IC50 (PYL10; Table VII, read-out: PP2C Dose Curves PYL10 (IC50))	IC50 (PYL11; Table VII, read-out: PP2C Dose Curves PYL11 (IC50))	IC50 (PYL6; Table VII, read-out: PP2C Dose Curves PYL6 (IC50))	minimal effective concentration ([1]; Table VIII, tested at 10 or 50 μM, ABA at 1 μM, lowest inhibiting concentration, − = none, read-out: Germination Inhibition)	Germination Inhibition ([1]; Germination Inhibition II, tested at 10 and 50 uM, lowest of the two concentrations that inhibited, − = none)	remaining activity at 50 µM (PYL10)	IC50 (PYL10; [2])	remaining activity at 50 µM (PYL11)	remaining activity at 50 µM (PYL6)	IC50 (PYL6; [3])	minimal effective concentration [1, 4]	IC50 (PYL11; [5])	minimal effective concentration [1, 6]
N#Cc1ccc(CS(=O)(=O)NC(=O)C2(c3ccc(F)cc3)CCCCC2)cc1 [Compound 51]	4.46 µM	5.33 µM	> 50 µM	10 µM	10 µM	–	–	–	–	–	–	–	–
CC(C)COC(=O)NS(=O)(=O)Cc1ccc(C#N)cc1 [Compound 65, 2-Methylpropyl N-[(4-cyanophenyl)methanesulfonyl]carbamate]	–	–	–	–	–	39.2%	19.2 µM	42.1%	58.9%	> 50 µM	50 µM	–	–
CC1CCC(C(=O)NS(=O)(=O)Cc2ccc(C#N)cc2)(c2ccc(F)cc2)CC1 (centres unmarked) [Compound 67, N-[(4-Cyanophenyl)methanesulfonyl]-1-(4-fluorophenyl)-4-methylcyclohexane-1-carboxamide]	–	–	–	–	–	48.2%	–	14.7%	46.6%	–	10 µM	3.13 µM	25 µM
CC1(C)CCC(C(=O)NS(=O)(=O)Cc2ccc(C#N)cc2)(c2ccc(F)cc2)CC1 [Compound 68, N-[(4-Cyanophenyl)methanesulfonyl]-1-(4-fluorophenyl)-4,4-dimethylcyclohexane-1-carboxamide]	–	–	–	–	–	83.3%	> 50 µM	16.2%	46.6%	–	10 µM	2.22 µM	25 µM
N#Cc1ccc(CS(=O)(=O)NC(=O)C2(c3ccccc3)CCCCC2)cc1 [Compound 69, N-[(4-Cyanophenyl)methanesulfonyl]-1-phenylcyclohexane-1-carboxamide]	–	–	–	–	–	27.3%	1.69 µM	13.5%	72.6%	> 50 µM	1 µM	2.53 µM	5 µM
N#Cc1ccc(CS(=O)(=O)NC(=O)C2(c3cccs3)CCCCC2)cc1 [Compound 75, N-[(4-Cyanophenyl)methanesulfonyl]-1-(thiophen-2-yl)cyclohexane-1-carboxamide]	–	–	–	–	–	27%	0.38 µM	9.8%	57.2%	> 50 µM	5 µM	0.39 µM	5 µM
N#Cc1ccc(CS(=O)(=O)NC(=O)C2(c3ccsc3)CCCCC2)cc1 [Compound 78, N-[(4-Cyanophenyl)methanesulfonyl]-1-(thiophen-3-yl)cyclohexane-1-carboxamide]	–	–	–	–	–	25.6%	0.25 µM	9.9%	44.9%	25 µM	2.5 µM	0.19 µM	2.5 µM
N#Cc1ccc(CS(=O)(=O)NC(=O)C2(c3ccsc3)CCCCC2)cc1Br [Compound 106, N-[(4-Cyano-3-bromophenyl)methanesulfonyl]-1-(thiophen-3-yl)cyclohexane-1-carboxamide]	–	–	–	–	–	22.5%	0.022 µM	7.8%	17.6%	7.84 µM	1 µM	0.065 µM	1 µM
